Patent publication US10238630B2, “Use of eribulin and poly (ADP ribose) polymerase (PARP) inhibitors as combination therapy for the treatment of cancer” (Eisai R&D Management Co., Ltd., priority 2014, dated 2019)
Entries after “also recorded” stand apart in the source; their conditions may differ. Where a name gives a salt, the structure may show the parent alone.

How the values were obtained:
[1] = tested on: MDA-MB-231 human breast cancer xenografts; test: Antitumor activity against subcutaneous MDA-MB-231 human breast cancer xenografts in athymic mice (two studies); format: in vivo
Experimental: MDA-MB-231 human triple negative breast cancer cells are wild type for BRCA1 and 2 and PTEN. Cells were maintained in monolayer cultures in RPMI-1640 growth medium supplemented with 10% fetal bovine serum at 37° C. in a 5% CO2 humidified incubator. On the day of inoculation, cells were harvested by trypsinization, washed, and resuspended in ice-cold PBS. Female immunodeficient athymic mice were inoculated subcutaneously near the right axillary area with MDA-MB-231 cells (5×10^6) in a 1:1 ratio (50 μL each) with Matrigel™ in a volume of 0.1 mL in phosphate buffered saline, using a 26-gauge needle. A total of 94 mice, approximately 6 weeks old were implanted with MDA-MB-231 cells.
E7449, carboplatin and E7389 were evaluated as single agents and in combination for antitumor activity against MDA-MB-231 human breast cancer xenografts in athymic mice. The first experiment consisted of a vehicle control group, an E7449 single agent group, 2 groups treated with single agent E7389 and 2 combination drug-treated groups (Table 5). Thirty-nine mice were inoculated with MDA-MB-231 cells and on Day 21 following implantation, tumor volumes were measured and mice were randomized into the 6 treatment groups based on tumor volume (average of 300 mm^3). Following randomization drug treatment was initiated. Each group was composed of 5 mice for a total of 30 mice on the first day of treatment. E7449 was formulated in 0.5% methyl cellulose and orally administered once daily for 28 days at 100 mg/kg based on body weight at 0.1 mL per 10 g. E7389 was formulated in saline and was intravenously administered once every 4 days, 4 times (Day 21, 25, 29, and 33) at a dosage of 0.05 or 0.1 mg/kg as single agent or in combination with E7449, based on body weight at 0.1 mL per 10 g. The control group was treated with oral vehicle (0.5% methyl cellulose in water) daily and intravenous vehicle (saline) once every 4 days, 4 times. E7449 or vehicle was administered first and when dosing of all animals was complete E7389 was administered to animals receiving the combination.
The second experiment consisted of a vehicle control group, 2 groups treated with single agent E7449, 2 groups treated with single agent carboplatin and 3 combination drug-treated groups (Table 6). Fifty five mice were inoculated with MDA-MB-231 cells and on Day 18 following implantation, tumor volumes were measured and mice were randomized into 8 treatment groups based on tumor volume (average of 300 mm^3). Following randomization drug treatment was initiated. Each group consisted of 5 mice for a total of 40 mice on the first day of treatment. E7449, formulated in 0.5% methyl cellulose was orally administered daily for 28 days, at 60 or 100 mg/kg based on body weight at 0.1 mL per 10 g. Carboplatin was formulated in saline and was intravenously administered once on the first day of treatment (Day 18) at a dosage of 15 or 60 mg/kg as a single agent or in combination with E7449 based on body weight at 0.1 mL per 10 g. The control group was treated with oral vehicle (0.5% methyl cellulose in water) daily and intravenous vehicle (saline) once on Day 18. E7449 or vehicle was administered first and when dosing of all animals was complete carboplatin was administered to animals receiving the combination.
Drug treatment was initiated 21 or 18 days post tumor implantation, in the E7389 and carboplatin combination studies respectively, and continued for 28 days. […]

[2] = tested on: HCC1806 human breast cancer xenografts; test: Antitumor activity against subcutaneous HCC1806 human breast cancer xenografts in athymic mice; format: in vivo
Experimental: HCC1806 human triple negative breast cancer cells, wild type for BRCA and PTEN, were maintained in monolayer cultures in RPMI-1640 growth medium supplemented with 10% fetal bovine serum at 37° C. in a 5% CO2 humidified incubator. On the day of inoculation, cells were harvested by trypsinization, washed, and resuspended in ice-cold PBS. Female immunodeficient athymic mice were inoculated subcutaneously near the right axillary area using a 26-gauge needle with HCC1806 cells (2.5×10^6) in a 0.1 mL volume. A total of 60 mice, approximately 6 weeks old were implanted with cells.
E7449 and E7389 were evaluated as single agents and in combination for anti-tumor activity against HCC1806 human breast cancer xenografts in athymic mice. The experiment consisted of a vehicle-treated control group, an E7449 single agent-treated group, two groups treated with single agent E7389 and 2 combination drug-treated groups (Table 7). Each group was composed of 8 mice for a total of 48 mice on the first day of treatment. Sixty mice were inoculated with HCC1806 cells and on day 5 following implantation, tumor volumes were measured and mice were randomized into the 6 treatment groups based on tumor volume (average of 150 mm^3). Following randomization drug treatment was initiated (Day 5). E7449 was formulated in 0.5% methyl cellulose and orally administrated daily at 100 mg/kg based on body weight at 0.1 mL per 10 g. E7449 was administered once daily for 28 days (starting on Day 5) as a single agent or in combination with E7389. E7389 was formulated in saline and was administered intravenously once every 4 days 4 times (Day 5, 9, 13, and 17) at a dosage of 0.1 or 0.4 mg/kg as single agent or in combination with E7449, based on body weight at 0.1 mL per 10 g. The control group was treated with oral vehicle (0.5% methyl cellulose in water) daily and intravenous vehicle (saline) once every 4 days, 4 times. E7449 or vehicle was administered first and when dosing of all animals was complete E7389 was administered to animals receiving the combination.
Tumor dimensions were recorded twice per week starting at the initiation of drug treatment. […] The data generated consist of group mean tumor volumes and group mean body weights at each measurement.
Drug treatment was initiated following randomization on Day 5 (5 days post tumor implantation) and continued for 28 days. Animals whose tumor measurement reached ≥2 cm at the longest axis were euthanized prior to study termination. The study was terminated on Day 38. Statistical analysis was performed on Day 20.
Statistical analysis of the vehicle group (A) versus all drug treatment groups (B, C, D, E and F) was performed by a one way analysis of variance (ANOVA) for tumor volume followed by Dunnett's multiple comparison test. […]

BR1474 = test: Antitumor effect in patient-derived xenograft (PDx) BR1474 of triple negative breast cancer in athymic mice; format: in vivo, human

Structure (SMILES)	inhibition of tumor growth versus vehicle ([1]; E7389 0.1 mg/kg IV Q4Dx4, single agent, P<0.05 on Day 42, 0.1 mg/kg)	antitumor effect (tumor volume), dose dependence ([1]; E7389 0.05 and 0.1 mg/kg IV Q4Dx4, single agent)	antitumor effect (tumor volume) ([2]; E7389 0.1 mg/kg IV Q4Dx4, single agent)	antitumor effect (tumor volume) ([2]; E7389 0.4 mg/kg IV Q4Dx4, single agent)	antitumor effect (tumor volume), dose dependence ([2]; E7389 0.1 and 0.4 mg/kg IV Q4Dx4, single agent)	antitumor effect (tumor volume) (BR1474; E7389 0.3 mg/kg, single agent)	antitumor effect (tumor volume) ([1]; E7389 combination study, E7449 100 mg/kg PO QDx28, single agent, 100 mg/kg)	antitumor effect (tumor volume) ([1]; carboplatin combination study, E7449 60 or 100 mg/kg PO QDx28, single agent)	antitumor effect (tumor volume) ([2]; E7449 100 mg/kg PO QDx28, single agent, 100 mg/kg)	sensitivity of the model among the three PDx models (BR1474; E7449 as a single agent)
C=C1C[C@@H]2CC[C@@]34C[C@H]5OC6[C@@H](O[C@H]7CC[C@H](CC(=O)C[C@@H]8[C@@H](OC)[C@@H](C[C@H](O)CN)O[C@H]8C[C@H]8O[C@@H](CC[C@@H]1O2)C[C@@H](C)C8=C)O[C@@H]7[C@@H]6O3)[C@H]5O4 [E7389, 11, 15:18,21:24,28-triepoxy-7,9-ethano-12,15-methano-9H,15H-furo[3,2-i]furo[2′,3′:5,6]pyrano[4,3-b] [1,4]dioxacyclopentacosin-5(4H)-one, 2-[(2S)-3-amino-2-hydroxypropyl]hexacosahydro-3-methoxy-26-methyl-20,27-bis(methylene)-, (2R,3R,3aS,7R,8aS,9S,10aR,11S,12R,13aR,13bS,15S,18S,21S,24S,26R,28R,29aS)-methanesulfonate (salt)]	statistically significant effect; also recorded: Statistically significant inhibition of tumor growth	Dose dependent antitumor activity	tumor growth inhibition	tumor regression	Dose-dependent antitumor activity	enhanced antitumor activity	–	–	–	–
O=c1[nH]nc2c3c(cccc13)N=C(CN1Cc3ccccc3C1)N2 [E7449]	–	–	–	–	–	–	did not significantly inhibit tumor growth; also recorded: No antitumor activity	did not significantly inhibit tumor growth; also recorded: No antitumor activity	no effect on tumor growth; also recorded: No antitumor activity	most sensitive
